Laboratory results: PMC11702208 (RSC Advances, 2025)
Where “and” joins values, the source holds several entries; their conditions need not be identical. Equal entries are not always repeated. One block for each molecule: values may come before it.

Experiments:
EKVX = experiment: NCI cytotoxicity screen; assay type: cell-based, human; details: 10.0 μM one dose
NCI-H322M = experiment: NCI cytotoxicity screen; assay type: cell-based, human; details: 10.0 μM one dose
SF-268 = experiment: NCI cytotoxicity screen; assay type: cell-based, human; details: 10.0 μM one dose
U251 = experiment: NCI cytotoxicity screen; assay type: cell-based, human; details: 10.0 μM one dose; U-251
CAKI-1 = experiment: NCI cytotoxicity screen; assay type: cell-based, human; details: 10.0 μM one dose
UO-31 = experiment: NCI cytotoxicity screen; assay type: cell-based, human; details: 10.0 μM one dose
HOP-92 = experiment: NCI cytotoxicity screen; assay type: cell-based, human; details: 10.0 μM one dose
SNB-75 = experiment: NCI cytotoxicity screen; assay type: cell-based, human; details: 10.0 μM one dose
NCI-H522 = experiment: NCI cytotoxicity screen; assay type: cell-based, human; details: 10.0 μM one dose
UACC-62 = experiment: NCI cytotoxicity screen; assay type: cell-based, human; details: 10.0 μM one dose
MCF7 = experiment: NCI cytotoxicity screen; assay type: cell-based, human; details: 10.0 μM one dose; MCF-7
MDA-MB-231/ATCC = experiment: NCI cytotoxicity screen; assay type: cell-based, human; details: 10.0 μM one dose; MDA-MB-231/ATCC
HS 578T = experiment: NCI cytotoxicity screen; assay type: cell-based, human; details: 10.0 μM one dose; HS-578T
59 cancer cell lines = experiment: NCI cytotoxicity screen, full panel; assay type: cell-based, human; details: 10.0 μM one dose; 59 cell lines
COX-2 = target: T1, COX-2 (Ovis aries, UniProt P79208); experiment: Colorimetric COX; assay type: biochemical, ovine
T1 sequence (P79208 17-603): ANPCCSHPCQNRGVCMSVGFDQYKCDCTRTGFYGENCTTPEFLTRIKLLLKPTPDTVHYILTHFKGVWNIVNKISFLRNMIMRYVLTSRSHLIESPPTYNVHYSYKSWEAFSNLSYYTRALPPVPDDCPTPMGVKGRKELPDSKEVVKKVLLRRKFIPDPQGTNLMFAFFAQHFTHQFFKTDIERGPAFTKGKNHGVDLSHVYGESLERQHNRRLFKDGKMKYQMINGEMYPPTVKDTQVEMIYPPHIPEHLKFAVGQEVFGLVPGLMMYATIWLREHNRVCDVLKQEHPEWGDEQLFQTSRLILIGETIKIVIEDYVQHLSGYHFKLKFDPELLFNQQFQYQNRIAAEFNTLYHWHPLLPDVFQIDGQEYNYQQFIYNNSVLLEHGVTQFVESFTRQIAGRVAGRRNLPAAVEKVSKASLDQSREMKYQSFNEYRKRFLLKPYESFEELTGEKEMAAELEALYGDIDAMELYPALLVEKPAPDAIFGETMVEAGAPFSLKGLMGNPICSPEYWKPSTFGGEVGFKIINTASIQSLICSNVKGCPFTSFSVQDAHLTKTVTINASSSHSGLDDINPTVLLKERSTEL

EGFR = EGFR (Homo sapiens, UniProt P00533); experiment: biochemical; details: IC50 EGFR inhibition
EGFR, sequence (P00533 25-1210): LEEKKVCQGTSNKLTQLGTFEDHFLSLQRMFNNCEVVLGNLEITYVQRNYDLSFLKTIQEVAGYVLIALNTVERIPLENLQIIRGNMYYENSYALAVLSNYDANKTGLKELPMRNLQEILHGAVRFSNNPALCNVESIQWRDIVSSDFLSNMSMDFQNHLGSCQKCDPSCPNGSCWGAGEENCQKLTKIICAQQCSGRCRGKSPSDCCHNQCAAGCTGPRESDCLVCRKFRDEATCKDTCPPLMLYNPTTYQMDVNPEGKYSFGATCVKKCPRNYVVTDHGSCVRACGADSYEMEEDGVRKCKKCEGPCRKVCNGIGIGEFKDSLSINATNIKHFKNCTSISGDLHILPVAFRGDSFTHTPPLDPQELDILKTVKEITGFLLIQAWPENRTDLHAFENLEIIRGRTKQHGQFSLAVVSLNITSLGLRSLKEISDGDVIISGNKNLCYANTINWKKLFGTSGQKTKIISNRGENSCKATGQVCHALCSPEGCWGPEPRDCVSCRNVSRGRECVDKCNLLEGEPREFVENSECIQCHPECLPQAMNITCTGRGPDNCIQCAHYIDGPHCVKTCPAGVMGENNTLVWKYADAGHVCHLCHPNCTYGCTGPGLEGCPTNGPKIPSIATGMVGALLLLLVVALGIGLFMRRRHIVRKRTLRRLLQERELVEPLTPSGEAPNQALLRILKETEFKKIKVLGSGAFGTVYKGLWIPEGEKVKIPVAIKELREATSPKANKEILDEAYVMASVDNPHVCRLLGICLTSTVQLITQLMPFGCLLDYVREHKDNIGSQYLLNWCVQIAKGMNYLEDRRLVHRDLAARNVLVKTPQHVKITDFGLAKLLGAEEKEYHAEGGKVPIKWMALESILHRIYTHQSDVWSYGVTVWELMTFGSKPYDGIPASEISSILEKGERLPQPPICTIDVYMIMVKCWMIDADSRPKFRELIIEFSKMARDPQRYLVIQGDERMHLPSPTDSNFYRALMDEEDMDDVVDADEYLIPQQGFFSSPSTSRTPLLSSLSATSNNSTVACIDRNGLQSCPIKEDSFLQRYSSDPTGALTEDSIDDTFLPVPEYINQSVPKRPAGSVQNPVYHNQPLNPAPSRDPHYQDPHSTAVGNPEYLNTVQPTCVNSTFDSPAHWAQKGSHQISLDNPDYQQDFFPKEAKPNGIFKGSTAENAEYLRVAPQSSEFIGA

HER2 = HER2 (Homo sapiens, UniProt P04626); experiment: HER2 tyrosine kinase assay; assay type: biochemical; details: IC50 HER2 inhibition
HER2, sequence (P04626 23-1255): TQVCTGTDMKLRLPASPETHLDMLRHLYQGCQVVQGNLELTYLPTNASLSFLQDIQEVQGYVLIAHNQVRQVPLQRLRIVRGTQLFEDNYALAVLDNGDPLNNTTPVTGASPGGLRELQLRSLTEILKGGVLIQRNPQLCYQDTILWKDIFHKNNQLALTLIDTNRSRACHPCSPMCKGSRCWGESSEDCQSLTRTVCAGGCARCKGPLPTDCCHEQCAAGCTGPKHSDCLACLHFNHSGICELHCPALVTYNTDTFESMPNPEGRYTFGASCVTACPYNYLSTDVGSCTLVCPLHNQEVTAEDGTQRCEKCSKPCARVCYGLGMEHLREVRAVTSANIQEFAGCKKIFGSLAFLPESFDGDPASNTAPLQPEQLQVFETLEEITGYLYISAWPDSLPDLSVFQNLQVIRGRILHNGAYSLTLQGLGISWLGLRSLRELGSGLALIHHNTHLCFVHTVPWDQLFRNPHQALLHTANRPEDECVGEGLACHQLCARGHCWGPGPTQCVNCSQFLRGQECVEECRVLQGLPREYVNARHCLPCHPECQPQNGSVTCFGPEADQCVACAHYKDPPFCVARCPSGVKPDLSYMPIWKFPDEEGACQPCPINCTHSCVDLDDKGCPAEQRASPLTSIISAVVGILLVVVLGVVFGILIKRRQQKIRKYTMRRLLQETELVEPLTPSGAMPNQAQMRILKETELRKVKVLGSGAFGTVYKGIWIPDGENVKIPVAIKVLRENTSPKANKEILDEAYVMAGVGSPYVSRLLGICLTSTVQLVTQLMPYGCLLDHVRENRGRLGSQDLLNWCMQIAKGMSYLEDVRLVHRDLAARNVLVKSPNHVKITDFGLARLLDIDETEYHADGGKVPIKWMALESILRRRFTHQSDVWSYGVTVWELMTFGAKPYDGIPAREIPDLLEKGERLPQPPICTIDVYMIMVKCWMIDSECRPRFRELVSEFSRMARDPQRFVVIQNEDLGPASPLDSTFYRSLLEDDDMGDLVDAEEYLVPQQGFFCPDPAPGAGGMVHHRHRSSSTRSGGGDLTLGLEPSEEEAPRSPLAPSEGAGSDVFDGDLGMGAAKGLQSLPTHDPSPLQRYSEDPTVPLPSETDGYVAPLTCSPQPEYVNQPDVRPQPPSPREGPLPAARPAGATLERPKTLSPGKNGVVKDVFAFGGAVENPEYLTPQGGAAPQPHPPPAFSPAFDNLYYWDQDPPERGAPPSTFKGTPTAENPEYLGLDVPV

CDK9 = CDK9 (Homo sapiens, UniProt P50750); experiment: biochemical; details: IC50 CDK9 inhibition
CDK9, sequence (P50750 whole entry): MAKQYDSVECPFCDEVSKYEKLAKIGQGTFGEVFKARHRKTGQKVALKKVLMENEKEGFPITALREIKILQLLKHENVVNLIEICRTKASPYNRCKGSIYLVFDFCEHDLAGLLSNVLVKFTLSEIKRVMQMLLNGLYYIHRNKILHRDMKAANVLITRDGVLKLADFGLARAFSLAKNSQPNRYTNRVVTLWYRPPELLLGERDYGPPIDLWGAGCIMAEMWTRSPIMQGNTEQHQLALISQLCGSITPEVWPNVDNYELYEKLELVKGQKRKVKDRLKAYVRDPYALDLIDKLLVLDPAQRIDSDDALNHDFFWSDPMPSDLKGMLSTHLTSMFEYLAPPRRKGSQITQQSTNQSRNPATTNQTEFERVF
CDK9, sequence (O60563 whole entry partner): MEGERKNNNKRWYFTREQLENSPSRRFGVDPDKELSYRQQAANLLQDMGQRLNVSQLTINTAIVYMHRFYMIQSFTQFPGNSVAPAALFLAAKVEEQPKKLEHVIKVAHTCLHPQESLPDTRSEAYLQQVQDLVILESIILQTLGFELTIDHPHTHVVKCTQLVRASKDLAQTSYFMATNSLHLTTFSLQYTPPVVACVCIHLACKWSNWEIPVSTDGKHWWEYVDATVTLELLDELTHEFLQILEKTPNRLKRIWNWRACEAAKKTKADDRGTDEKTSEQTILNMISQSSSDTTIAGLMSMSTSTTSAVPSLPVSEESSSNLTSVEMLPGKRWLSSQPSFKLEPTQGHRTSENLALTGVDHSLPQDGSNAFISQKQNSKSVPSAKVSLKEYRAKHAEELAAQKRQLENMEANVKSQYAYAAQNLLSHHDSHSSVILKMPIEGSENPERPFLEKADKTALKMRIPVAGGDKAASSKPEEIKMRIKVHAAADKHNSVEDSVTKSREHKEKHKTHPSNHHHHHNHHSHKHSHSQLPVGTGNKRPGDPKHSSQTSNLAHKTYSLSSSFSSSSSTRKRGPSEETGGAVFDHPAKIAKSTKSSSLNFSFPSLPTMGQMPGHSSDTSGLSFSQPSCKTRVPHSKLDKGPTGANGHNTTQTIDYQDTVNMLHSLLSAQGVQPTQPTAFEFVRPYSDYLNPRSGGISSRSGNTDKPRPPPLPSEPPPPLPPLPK

RPMI-8226 = experiment: NCI cytotoxicity screen; assay type: cell-based, human; details: 10.0 μM one dose
NCI-H226 = experiment: NCI cytotoxicity screen; assay type: cell-based, human; details: 10.0 μM one dose
SF-539 = experiment: NCI cytotoxicity screen; assay type: cell-based, human; details: 10.0 μM one dose
RXF 393 = experiment: NCI cytotoxicity screen; assay type: cell-based, human; details: 10.0 μM one dose
SN12C = experiment: NCI cytotoxicity screen; assay type: cell-based, human; details: 10.0 μM one dose; SN-12C
MDA-MB-468 = experiment: NCI cytotoxicity screen; assay type: cell-based, human; details: 10.0 μM one dose
HCT-116 = experiment: NCI cytotoxicity screen; assay type: cell-based, human; details: 10.0 μM one dose
SNB-19 = experiment: NCI cytotoxicity screen; assay type: cell-based, human; details: 10.0 μM one dose
SK-MEL-5 = experiment: NCI cytotoxicity screen; assay type: cell-based, human; details: 10.0 μM one dose
OVCAR-5 = experiment: NCI cytotoxicity screen; assay type: cell-based, human; details: 10.0 μM one dose; OVCAR-5
T-47D = experiment: NCI cytotoxicity screen; assay type: cell-based, human; details: 10.0 μM one dose; T-47D
SR = experiment: NCI cytotoxicity screen; assay type: cell-based, human; details: 10.0 μM one dose
NCI-H23 = experiment: NCI cytotoxicity screen; assay type: cell-based, human; details: 10.0 μM one dose
KM12 = experiment: NCI cytotoxicity screen; assay type: cell-based, human; details: 10.0 μM one dose; KM-12
LOX IMVI = experiment: NCI cytotoxicity screen; assay type: cell-based, human; details: 10.0 μM one dose
MALME-3M = experiment: NCI cytotoxicity screen; assay type: cell-based, human; details: 10.0 μM one dose; MALME-3M
M14 = experiment: NCI cytotoxicity screen; assay type: cell-based, human; details: 10.0 μM one dose
MDA-MB-435 = experiment: NCI cytotoxicity screen; assay type: cell-based, human; details: 10.0 μM one dose
786-0 = experiment: NCI cytotoxicity screen; assay type: cell-based, human; details: 10.0 μM one dose
BT-549 = experiment: NCI cytotoxicity screen; assay type: cell-based, human; details: 10.0 μM one dose

Molecule: 4-((4-Oxo-2-((2-oxo-2-(2-(1-(p-tolyl)ethylidene)hydrazineyl)ethyl)thio)quinazolin-3(4H)-yl)methyl)benzenesulfonamide [Compound 10]
GI % (EKVX): 10%
GI % (NCI-H322M): 14%
GI % (SF-268): 14%
GI % (U251): 15%
GI % (CAKI-1): 16%
GI % (UO-31): 20%

Molecule: NS(=O)(=O)c1ccc(Cn2c(=S)[nH]c3ccccc3c2=O)cc1 [Compound 1, 4-((4-Oxo-2-thioxo-1,4-dihydroquinazolin-3(2H)-yl)methyl)benzenesulfonamide]
GI % (HOP-92): 14%
GI % (SNB-75): 23%
GI % (CAKI-1): 11%
GI % (UO-31): 19%

Molecule: CCOC(=O)CSc1nc2ccccc2c(=O)n1Cc1ccc(S(N)(=O)=O)cc1 [Compound 2, Ethyl 2-((4-oxo-3-(4-sulfamoylbenzyl)-3,4-dihydroquinazolin-2-yl)thio)acetate]
GI % (SNB-75): 15%
GI % (UO-31): 16%

Molecule: NS(=O)(=O)c1ccc(Cn2c(SCC(=O)NN=Cc3ccccc3)nc3ccccc3c2=O)cc1 [Compound 4, 4-((2-((2-(2-Benzylidenehydrazineyl)-2-oxoethyl)thio)-4-oxoquinazolin-3(4H)-yl)methyl)benzenesulfonamide]
GI % (EKVX): 14%
GI % (NCI-H522): 18%
GI % (SNB-75): 13%
GI % (UACC-62): 11%
GI % (CAKI-1): 16%
GI % (UO-31): 21%
GI % (MCF7): 14%
GI % (MDA-MB-231/ATCC): 12%
GI % (HS 578T): 11%

IC50 (COX-2): 50500 ± 1060 nM
IC50 (EGFR): 594 ± 14.5 nM
IC50 (HER2): 387 nM
IC50 (CDK9): 155 ± 3.81 nM
Molecule: COc1cccc(C=NNC(=O)CSc2nc3ccccc3c(=O)n2Cc2ccc(S(N)(=O)=O)cc2)c1 [Compound 7, 4-((2-((2-(2-(3-Methoxybenzylidene)hydrazineyl)-2-oxoethyl)thio)-4-oxoquinazolin-3(4H)-yl)methyl)benzenesulfonamide]
MG% (mean growth percent) (59 cancer cell lines): 89.4% and 89.35%

Molecule: COc1cc(C=NNC(=O)CSc2nc3ccccc3c(=O)n2Cc2ccc(S(N)(=O)=O)cc2)cc(OC)c1OC [Compound 8, 4-((4-Oxo-2-((2-oxo-2-(2-(3,4,5-trimethoxybenzylidene)hydrazineyl)ethyl)thio)quinazolin-3(4H)-yl)methyl)benzenesulfonamide]
GI % (RPMI-8226): 13%
GI % (EKVX): 15%
GI % (NCI-H226): 11%
GI % (NCI-H322M): 15%
GI % (NCI-H522): 48%
GI % (SF-268): 15%
GI % (SF-539): 12%
GI % (CAKI-1): 14%
GI % (RXF 393): 10%
GI % (SN12C): 10%
GI % (UO-31): 25%
GI % (MCF7): 11%
GI % (MDA-MB-231/ATCC): 15%
GI % (HS 578T): 15%
GI % (MDA-MB-468): 19%
MG% (mean growth percent) (59 cancer cell lines): 96.8% and 96.77%

Molecule: COc1cccc(C(C)=NNC(=O)CSc2nc3ccccc3c(=O)n2Cc2ccc(S(N)(=O)=O)cc2)c1 [Compound 11, 4-((2-((2-(2-(1-(3-Methoxyphenyl)ethylidene)hydrazineyl)-2-oxoethyl)thio)-4-oxoquinazolin-3(4H)-yl)methyl)benzenesulfonamide]
GI % (NCI-H522): 52%
GI % (HCT-116): 20%
GI % (SF-268): 25%
GI % (SF-539): 28%
GI % (SNB-19): 15%
GI % (SNB-75): 22%
GI % (U251): 20%
GI % (SK-MEL-5): 10%
GI % (OVCAR-5): 12%
GI % (CAKI-1): 21%
GI % (RXF 393): 16%
GI % (UO-31): 21%
GI % (MCF7): 10%
GI % (MDA-MB-231/ATCC): 25%
GI % (HS 578T): 19%
GI % (T-47D): 11%
GI % (MDA-MB-468): 19%
MG% (mean growth percent) (59 cancer cell lines): 94.5% and 94.54%

IC50 (COX-2): 21300 ± 440 nM
IC50 (EGFR): 492 ± 12.1 nM
IC50 (HER2): 111 nM
IC50 (CDK9): 320 ± 7.85 nM
Molecule: COc1cc(OC)cc(C(C)=NNC(=O)CSc2nc3ccccc3c(=O)n2Cc2ccc(S(N)(=O)=O)cc2)c1 [Compound 12, 4-((2-((2-(2-(1-(3,5-Dimethoxyphenyl)ethylidene)hydrazineyl)-2-oxoethyl)thio)-4-oxoquinazolin-3(4H)-yl)methyl)benzenesulfonamide]
GI % (SR): 28%
GI % (NCI-H23): 17%
GI % (NCI-H522): 62%
GI % (HCT-116): 17%
GI % (KM12): 30%
GI % (SF-268): 64%
GI % (SF-539): 64%
GI % (SNB-19): 49%
GI % (SNB-75): 39%
GI % (U251): 26%
GI % (LOX IMVI): 20%
GI % (MALME-3M): 30%
GI % (M14): 11%
GI % (MDA-MB-435): 30%
GI % (SK-MEL-5): 32%
GI % (UACC-62): 17%
GI % (OVCAR-5): 14%
GI % (786-0): 15%
GI % (CAKI-1): 16%
GI % (RXF 393): 30%
GI % (MDA-MB-231/ATCC): 28%
GI % (HS 578T): 11%
GI % (BT-549): 57%
GI % (T-47D): 62%
GI % (MDA-MB-468): 27%
MG% (mean growth percent) (59 cancer cell lines): 88.4%

Molecule: COc1cc(C(C)=NNC(=O)CSc2nc3ccccc3c(=O)n2Cc2ccc(S(N)(=O)=O)cc2)cc(OC)c1OC [Compound 13, 4-((4-Oxo-2-((2-oxo-2-(2-(1-(3,4,5-trimethoxyphenyl)ethylidene)hydrazineyl)ethyl)thio)quinazolin-3(4H)-yl)methyl)benzenesulfonamide]
GI % (SR): 12%
GI % (SNB-75): 13%
GI % (CAKI-1): 15%
GI % (UO-31): 24%
GI % (MCF7): 11%
GI % (MDA-MB-231/ATCC): 11%
GI % (T-47D): 15%
GI % (MDA-MB-468): 16%
MG% (mean growth percent) (59 cancer cell lines): 97.44%
